The target in this test is T1, HDAC1 (Homo sapiens, UniProt Q13547).
T1 construct: purchased Huntingtree Associates Ltd
Nature of the test: Epigenase HDAC Activity/Inhibition Direct Assay Kit (Colorimetric). Particulars: FIG. 20. Format: biochemical.

This is an account of results in patent US20240293472A1, “Bee Product Extracts, Methods of Production, and Uses Thereof” (Quantum Technologies Limited, priority 2020, published 2024).

T1 sequence (Q13547 whole entry): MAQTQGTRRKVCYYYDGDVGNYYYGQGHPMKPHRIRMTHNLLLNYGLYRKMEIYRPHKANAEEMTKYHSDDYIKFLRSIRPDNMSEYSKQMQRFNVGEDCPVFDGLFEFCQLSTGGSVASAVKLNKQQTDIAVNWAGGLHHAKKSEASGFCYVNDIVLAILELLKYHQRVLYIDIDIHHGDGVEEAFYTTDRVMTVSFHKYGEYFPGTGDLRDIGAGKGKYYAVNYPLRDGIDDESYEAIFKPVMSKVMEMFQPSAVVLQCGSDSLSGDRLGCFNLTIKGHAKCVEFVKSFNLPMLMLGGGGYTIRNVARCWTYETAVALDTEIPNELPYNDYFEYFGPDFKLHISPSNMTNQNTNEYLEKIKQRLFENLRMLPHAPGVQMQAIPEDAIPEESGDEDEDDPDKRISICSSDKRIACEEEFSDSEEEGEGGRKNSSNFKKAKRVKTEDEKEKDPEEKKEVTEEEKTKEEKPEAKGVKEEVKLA

For the molecule `CC(=O)C=O` [MGO, Methylglyoxal], the HDAC inhibition result is “dose response inhibition”.
